In patent publication US8343458B2, “Probes for in vivo targeting of active cysteine proteases” (The Board of Trustees of the Leland Stanford Junior …, priority 2008, dated 2013):

Tested on: thymus tissue undergoing apoptosis
Experiment: Tissue uptake in dexamethasone apoptosis mouse model
Assay type: in vivo
Conditions: dexamethasone-treated mice, 125I-labeled probe, radioactivity over time
Experimental: Graphs are for thymus, blood, muscle and liver.
Distribution studies were done in mice that were treated with dexamethazone (IP injection) to induce apoptosis in the thymus. This animal model is further described, e.g., in Casteels et al. “Sex Difference in Resistance to Dexamethasone-Induced Apoptosis in NOD Mice,” Diabetes, 47:1033-1037, 1998. AB53 was labeled with ^125I at the nitrophenol capping group.
Referring now to FIG. 6, data for the uptake of the probe in different tissues was obtained. Presented there are four graphs, one for thymus (FIG. 6A), one for blood (FIG. 6B) one for muscle (FIG. 6C) and one for liver (FIG. 6D), showing data from the in vivo uptake studies with ^125I-AB53. Graphs plot radioactivity as percent of initial dose/g of tissue from ^125I measured in different organs over time.

Cc1cccc(C)c1C(=O)OCC(=O)[C@H](CC(=O)O)NC(=O)C1CCCN1C(=O)[C@H](Cc1ccc(-c2ccccc2)cc1)NC(=O)Cc1ccc([N+](=O)[O-])c(O)c1 (stereo partly shown) [AB53]
Probe uptake in thymus: accumulates specifically in the thymus tissue that is undergoing apoptosis
